ChEMBL document CHEMBL4308841, “Synthesis, in vitro antiproliferative activity, and kinase inhibitory effects of pyrazole-containing diarylureas and diarylamides” (Eur J Med Chem, 2018)

Experiments:
[1] = system: SNB-75; assay: Growth inhibition of human SNB75 cells incubated for 48 hrs by sulforhodamine B assay; format: functional, cell-based; details: SNB-75, 48 h
[2] = system: SF-295; assay: Growth inhibition of human SF295 cells assessed as cell growth at 0.01 uM incubated for 48 hrs by sulforhodamine B assay relative to control; format: functional; details: SF-295, 48 h, read-out: Activity
[3] = system: CAKI-1; assay: Growth inhibition of human Caki1 cells assessed as cell growth at 0.01 uM incubated for 48 hrs by sulforhodamine B assay relative to control; format: functional; details: CAKI-1, 48 h, read-out: Activity
[4] = system: HCC 2998; assay: Growth inhibition of human HCC2998 cells assessed as cell growth at 0.1 uM incubated for 48 hrs by sulforhodamine B assay relative to control; format: functional; details: HCC 2998, 48 h, read-out: Activity
[5] = system: CAKI-1; assay: Growth inhibition of human Caki1 cells assessed as cell growth at 0.1 uM incubated for 48 hrs by sulforhodamine B assay relative to control; format: functional; details: CAKI-1, 48 h, read-out: Activity
[6] = system: SF-539; assay: Growth inhibition of human SF539 cells assessed as cell growth at 100 uM incubated for 48 hrs by sulforhodamine B assay relative to control; format: functional; details: SF-539, 48 h, read-out: Activity
[7] = system: KM12; assay: Growth inhibition of human KM12 cells assessed as cell growth at 0.1 uM incubated for 48 hrs by sulforhodamine B assay relative to control; format: functional; details: KM12, 48 h, read-out: Activity
[8] = system: NCI-H322M; assay: Growth inhibition of human NCI-H322M cells incubated for 48 hrs by sulforhodamine B assay; format: functional, cell-based
[9] = system: U-251; assay: Growth inhibition of human U251 cells incubated for 48 hrs by sulforhodamine B assay; format: functional, cell-based; details: U-251, 48 h
[10] = system: Malme-3M; assay: Growth inhibition of human MALME-3M cells assessed as cell growth at 0.1 uM incubated for 48 hrs by sulforhodamine B assay relative to control; format: functional; details: read-out: Activity
[11] = system: NCI-H460; assay: Growth inhibition of human NCI-H460 cells assessed as cell growth at 100 uM incubated for 48 hrs by sulforhodamine B assay relative to control; format: functional; details: NCI-H460, 48 h, read-out: Activity
[12] = system: Hs-578T; assay: Growth inhibition of human Hs578T cells assessed as cell growth at 0.01 uM incubated for 48 hrs by sulforhodamine B assay relative to control; format: functional; details: read-out: Activity
[13] = system: PC-3; assay: Growth inhibition of human PC3 cells assessed as cell growth at 100 uM incubated for 48 hrs by sulforhodamine B assay relative to control; format: functional; details: PC-3, 48 h, read-out: Activity
[14] = system: HCT-15; assay: Growth inhibition of human HCT15 cells assessed as cell growth at 0.01 uM incubated for 48 hrs by sulforhodamine B assay relative to control; format: functional; details: HCT-15, 48 h, read-out: Activity
[15] = system: MDA-MB-435; assay: Growth inhibition of human MDA-MB-435 cells assessed as cell growth at 0.01 uM incubated for 48 hrs by sulforhodamine B assay relative to control; format: functional; details: MDA-MB-435, 48 h, read-out: Activity
[16] = system: UO-31; assay: Growth inhibition of human UO31 cells incubated for 48 hrs by sulforhodamine B assay; format: functional, cell-based; details: UO-31, 48 h
[17] = system: Malme-3M; assay: Growth inhibition of human MALME-3M cells assessed as cell growth at 0.01 uM incubated for 48 hrs by sulforhodamine B assay relative to control; format: functional; details: read-out: Activity
[18] = system: MOLT-4; assay: Growth inhibition of human MOLT4 cells assessed as cell growth at 100 uM incubated for 48 hrs by sulforhodamine B assay relative to control; format: functional; details: MOLT-4, 48 h, read-out: Activity
[19] = system: SK-OV-3; assay: Growth inhibition of human SKOV3 cells assessed as cell growth at 0.1 uM incubated for 48 hrs by sulforhodamine B assay relative to control; format: functional; details: SK-OV-3, 48 h, read-out: Activity
[20] = system: UACC-62; assay: Growth inhibition of human UACC62 cells assessed as cell growth at 0.01 uM incubated for 48 hrs by sulforhodamine B assay relative to control; format: functional; details: UACC-62, 48 h, read-out: Activity
[21] = system: NCI-H322M; assay: Growth inhibition of human NCI-H322M cells assessed as cell growth at 0.01 uM incubated for 48 hrs by sulforhodamine B assay relative to control; format: functional; details: read-out: Activity
[22] = system: Hs-578T; assay: Growth inhibition of human Hs578T cells assessed as cell growth at 1 uM incubated for 48 hrs by sulforhodamine B assay relative to control; format: functional; details: read-out: Activity
[23] = system: OVCAR-4; assay: Growth inhibition of human OVCAR4 cells assessed as cell growth at 0.01 uM incubated for 48 hrs by sulforhodamine B assay relative to control; format: functional; details: OVCAR-4, 48 h, read-out: Activity
[24] = system: NCI/ADR-RES; assay: Growth inhibition of human NCI/ADR-RES cells assessed as cell growth at 1 uM incubated for 48 hrs by sulforhodamine B assay relative to control; format: functional; details: read-out: Activity
[25] = system: 786-0; assay: Growth inhibition of human 786-0 cells assessed as cell growth at 0.1 uM incubated for 48 hrs by sulforhodamine B assay relative to control; format: functional; details: 786-0, 48 h, read-out: Activity
[26] = system: MDA-MB-231; assay: Growth inhibition of human MDA-MB-231 cells assessed as cell growth at 100 uM incubated for 48 hrs by sulforhodamine B assay relative to control; format: functional; details: MDA-MB-231, 48 h, read-out: Activity
[27] = system: HOP-62; assay: Growth inhibition of human HOP62 cells incubated for 48 hrs by sulforhodamine B assay; format: functional, cell-based; details: HOP-62, 48 h
[28] = system: KM12; assay: Growth inhibition of human KM12 cells assessed as cell growth at 0.01 uM incubated for 48 hrs by sulforhodamine B assay relative to control; format: functional; details: KM12, 48 h, read-out: Activity
[29] = system: U-251; assay: Growth inhibition of human U251 cells assessed as cell growth at 100 uM incubated for 48 hrs by sulforhodamine B assay relative to control; format: functional; details: U-251, 48 h, read-out: Activity
[30] = system: SK-MEL-2; assay: Growth inhibition of human SK-MEL-2 cells assessed as cell growth at 10 uM incubated for 48 hrs by sulforhodamine B assay relative to control; format: functional; details: SK-MEL-2, 48 h, read-out: Activity
[31] = read-out: LC50 (the source's name)
[32] = read-out: pLC50 (the source's name) (converted)

**Q.** Which GI50 ([1]; read-out: GI50) does the source give for `O=C(Nc1cccc(-n2cc(-c3ccncc3)c(-c3cc(O)cc(Cl)c3)n2)c1)Nc1ccc(Cl)c(Cl)c1` here?
**A.** 1.38 µM

**Q.** What about the CC50 [1, 31] of the same compound?
**A.** > 100 µM

**Q.** What about the TGI ([1]; read-out: TGI) of the same compound?
**A.** 48.2 µM

**Q.** And the GI50 ([1]; read-out: pGI50 (converted))?
**A.** 1.38 µM

**Q.** What about the CC50 [1, 32] of the same compound?
**A.** > 100 µM

**Q.** What about the TGI ([1]; read-out: pTGI (converted)) of the same compound?
**A.** 4.79 µM

**Q.** And the growth at 0.01 µM [2]?
**A.** 92%

**Q.** And the growth at 0.01 µM [3]?
**A.** 100%

**Q.** And the growth at 0.1 µM [4]?
**A.** 110%

**Q.** And the growth at 0.1 µM [5]?
**A.** 98%

**Q.** And the growth at 100 µM [6]?
**A.** -52%

**Q.** What about the growth at 0.1 µM [7] of the same compound?
**A.** 100%

**Q.** And the GI50 ([8]; read-out: GI50)?
**A.** 1.78 µM

**Q.** And the CC50 [8, 31]?
**A.** > 100 µM

**Q.** What about the TGI ([8]; read-out: TGI) of the same compound?
**A.** 76.1 µM

**Q.** What about the GI50 ([8]; read-out: pGI50 (converted)) of the same compound?
**A.** 1.78 µM

**Q.** And the CC50 [8, 32]?
**A.** > 100 µM

**Q.** And the TGI ([8]; read-out: pTGI (converted))?
**A.** 7.76 µM

**Q.** What about the IC50 [9] of the same compound?
**A.** 1.44 µM

**Q.** What about the GI50 ([9]; read-out: GI50) of the same compound?
**A.** 1.44 µM

**Q.** And the CC50 [9, 31]?
**A.** 5.51 µM

**Q.** What about the TGI ([9]; read-out: TGI) of the same compound?
**A.** 30 µM

**Q.** What about the GI50 ([9]; read-out: pGI50 (converted)) of the same compound?
**A.** 1.45 µM

**Q.** And the CC50 [9, 32]?
**A.** 6.61 µM

**Q.** What about the TGI ([9]; read-out: pTGI (converted)) of the same compound?
**A.** 3.09 µM

**Q.** What about the growth at 0.1 µM [10] of the same compound?
**A.** 84%

**Q.** What about the growth at 100 µM [11] of the same compound?
**A.** -48%

**Q.** What about the growth at 0.01 µM [12] of the same compound?
**A.** 98%

**Q.** What about the growth at 100 µM [13] of the same compound?
**A.** -35%

**Q.** What about the growth at 0.01 µM [14] of the same compound?
**A.** 59%

**Q.** What about the growth at 0.01 µM [15] of the same compound?
**A.** 96%

**Q.** And the IC50 [16]?
**A.** 1.91 µM

**Q.** What about the GI50 ([16]; read-out: GI50) of the same compound?
**A.** 1.91 µM

**Q.** And the CC50 [16, 31]?
**A.** > 100 µM

**Q.** What about the TGI ([16]; read-out: TGI) of the same compound?
**A.** 65.1 µM

**Q.** And the GI50 ([16]; read-out: pGI50 (converted))?
**A.** 1.91 µM

**Q.** And the CC50 [16, 32]?
**A.** > 100 µM

**Q.** And the TGI ([16]; read-out: pTGI (converted))?
**A.** 6.46 µM

**Q.** What about the growth at 0.01 µM [17] of the same compound?
**A.** 57%

**Q.** What about the growth at 100 µM [18] of the same compound?
**A.** -10%

**Q.** What about the growth at 0.1 µM [19] of the same compound?
**A.** 103%

**Q.** What about the growth at 0.01 µM [20] of the same compound?
**A.** 96%

**Q.** And the growth at 0.01 µM [21]?
**A.** 52%

**Q.** What about the growth at 1 µM [22] of the same compound?
**A.** 57%

**Q.** And the growth at 0.01 µM [23]?
**A.** 108%

**Q.** And the growth at 1 µM [24]?
**A.** 90%

**Q.** And the growth at 0.1 µM [25]?
**A.** 90%

**Q.** And the growth at 100 µM [26]?
**A.** -24%

**Q.** And the GI50 ([27]; read-out: GI50)?
**A.** 2.52 µM

**Q.** What about the CC50 [27, 31] of the same compound?
**A.** > 100 µM

**Q.** And the TGI ([27]; read-out: TGI)?
**A.** 85.1 µM

**Q.** What about the GI50 ([27]; read-out: pGI50 (converted)) of the same compound?
**A.** 2.82 µM

**Q.** And the CC50 [27, 32]?
**A.** > 100 µM

**Q.** What about the TGI ([27]; read-out: pTGI (converted)) of the same compound?
**A.** 8.51 µM

**Q.** What about the growth at 0.01 µM [28] of the same compound?
**A.** 102%

**Q.** And the growth at 100 µM [29]?
**A.** -57%

**Q.** `COc1cc(Cl)cc(-c2nn(-c3cccc(NC(=O)c4ccc(Cl)c(Cl)c4)c3)cc2-c2ccncc2)c1` was tested. Which growth at 10 µM [30] did it give?
**A.** 78.4%
